Values of other authors as cited in patent publication US20240189234A1, “SILICON PARTICLES FOR DRUG DELIVERY” (NACAMED AS, priority 2021, published 2024).

conditions: calculated log P values from Foye's Principles of Medicinal Chemistry

SMILES | log P
CC[C@H]1CN2CCc3cc(OC)c(OC)cc3[C@@H]2C[C@@H]1C[C@H]1NCCc2cc(OC)c(OC)cc21 [Emetine] | 3.82
NCCCC[C@H](N[C@@H](CCc1ccccc1)C(=O)O)C(=O)N1CCC[C@H]1C(=O)O [Lisinopril] | 3.47
CN(C)CCC=C1c2ccccc2CCc2ccccc21 [amitriptyline] | 4.41
c1ccc(CN(CC2=NCCN2)c2ccccc2)cc1 [antazoline] | 3.58
CNCC[C@@H](Oc1ccccc1C)c1ccccc1 [atomoxetine] | 3.36
CCOC(=O)OC(C)OC(=O)[C@@H]1N2C(=O)[C@@H](NC(=O)[C@H](N)c3ccccc3)[C@H]2SC1(C)C (stereo partly shown) [bacampicillin] | 3.52
Cc1ccc(C(=O)Oc2ccc(C(O)CNC(C)(C)C)cc2OC(=O)c2ccc(C)cc2)cc1 (stereo not shown) [bitolterol] | 4.16
COc1ccccc1Oc1c(NS(=O)(=O)c2ccc(C(C)(C)C)cc2)nc(-c2ncccn2)nc1OCCO [bosentan] | 4.36
CN(C)CCOC(c1ccccc1)c1ccc(Br)cc1 (stereo not shown) [bromodiphenhydramine] | 4.03
CN(C)CCC(c1ccc(Br)cc1)c1ccccn1 (stereo not shown) [brompheniramine] | 3.24
CCCCN1CCCCC1C(=O)Nc1c(C)cccc1C (stereo not shown) [bupivacaine] | 3.31
CCCCN(CCCC)CCCOC(=O)c1ccc(N)cc1 [butacaine] | 4.62
Oc1ccc2c(c1)[C@@]13CCCC[C@@]1(O)[C@@H](C2)N(CC1CCC1)CC3 [butorphanol] | 3.54
CC1(C)[C@@H](OC(=O)CCC(=O)O)CC[C@]2(C)[C@H]3C(=O)C=C4[C@@H]5C[C@@](C)(C(=O)O)CC[C@]5(C)CC[C@@]4(C)[C@]3(C)CC[C@@H]12 [carbenoxolone] | 6.63
CN(C)CCCN1c2ccccc2Sc2ccc(Cl)cc21 [chlorpromazine] | 5.35
CN(C)CC/C=C1/c2ccccc2Sc2ccc(Cl)cc21 [chlorprothixene] | 5.31
C=C[C@H]1C[N@@]2CC[C@H]1C[C@@H]2[C@@H](O)c1ccnc2ccccc12 [cinchonine] | 3.69
CCOC(=O)C(C)(C)Oc1ccc(Cl)cc1 [clofibrate] | 3.88
Clc1ccccc1C(c1ccccc1)(c1ccccc1)n1ccnc1 [clotrimazole] | 4.92
C[C@H]1[C@H]2Cc3ccc(O)cc3[C@]1(C)CCN2CC1CC1 [cyclazocine] | 3.52
CN(C)CCC=C1c2ccccc2C=Cc2ccccc21 [cyclobenzaprine] | 6.19
CN1CCC(=C2c3ccccc3C=Cc3ccccc32)CC1 [cyproheptadine] | 4.92
COC(=O)[C@H]1[C@H]2C[C@@H]3c4[nH]c5ccccc5c4CCN3C[C@H]2C[C@@H](OC(=O)c2cc(OC)c(OC)c(OC)c2)[C@@H]1OC [deserpidine] | 4.95
CCN[C@@H](C)Cc1cccc(C(F)(F)F)c1 [dextrofenfluramine] | 3.55
COc1ccc2c(c1)[C@]13CCCC[C@@H]1[C@H](C2)N(C)CC3 [dextromethorphan] | 3.89
CN(C)CCN1C(=O)c2ccccc2N(C)c2ccccc21 [dibenzepin] | 3.26

SMILES | log P
CCCCOc1cc(C(=O)NCCN(CC)CC)c2ccccc2n1 [dibucaine] | 4.40
Cc1onc(-c2c(Cl)cccc2Cl)c1C(=O)N[C@@H]1C(=O)N2[C@@H]1SC(C)(C)[C@@H]2C(=O)O [dicloxacillin] | 3.10
CCN(CC)CCOC(=O)C1(C2CCCCC2)CCCCC1 [dicyclomine] | 4.64
CCN(CC)CCN1c2ccccc2Sc2ccccc21 [diethazine] | 5.55
O=C(O)c1cc(-c2ccc(F)cc2F)ccc1O [diflunisal] | 3.65
CC(C)[C@@]1(NC(=O)[C@@H]2C[C@@H]3c4cccc5[nH]cc(c45)C[C@H]3N(C)C2)O[C@@]2(O)[C@@H]3CCCN3C(=O)[C@H](Cc3ccccc3)N2C1=O [dihydroergocristine] | 6.55
CN1C[C@H](C(=O)N[C@]2(C)O[C@@]3(O)[C@@H]4CCCN4C(=O)[C@H](Cc4ccccc4)N3C2=O)C[C@@H]2c3cccc4[nH]cc(c34)C[C@H]21 [dihydroergotamine] | 5.69
CCCCc1cc2ccccc2c(OCCN(C)C)n1 [dimethisoquin] | 4.04
O=C(Nc1ccccc1)OCC(CN1CCCCC1)OC(=O)Nc1ccccc1 (stereo not shown) [diperodon] | 4.65
N#CC(CCN1CCC(C(=O)O)(c2ccccc2)CC1)(c1ccccc1)c1ccccc1 [diphenoxin] | 3.97
CN1CCC(OC(c2ccccc2)c2ccccc2)CC1 [diphenylpyraline] | 3.43
CCC(=O)C(CC(C)N1CCCCC1)(c1ccccc1)c1ccccc1 (stereo not shown) [dipipanone] | 5.10
CN(C)CCC=C1c2ccccc2COc2ccccc21 [doxepin] | 3.85
O=C(CCCN1CC=C(n2c(=O)[nH]c3ccccc32)CC1)c1ccc(F)cc1 [droperidol] | 3.10
CCN(CC)C(=O)/C(C#N)=C/c1cc(O)c(O)c([N+](=O)[O-])c1 [entacapone] | 3.02
CN1C[C@H](C(=O)N[C@]2(C)O[C@@]3(O)[C@@H]4CCCN4C(=O)[C@H](Cc4ccccc4)N3C2=O)C=C2c3cccc4[nH]cc(c34)C[C@H]21 [ergotamine] | 7.37
C[C@]12CC[C@@H]3c4ccc(O)cc4CC[C@H]3[C@@H]1CCC2=O [estrone] | 3.62
CCN(CC)C(C)CN1c2ccccc2Sc2ccccc21 (stereo not shown) [ethopropazine] | 4.77
CCCN(CC)C(CC)C(=O)Nc1c(C)cccc1C (stereo not shown) [etidocaine] | 3.57
O=C(O)Cc1ccccc1Oc1ccc(Cl)cc1Cl [fenclofenac] | 4.59
CCNC(C)Cc1cccc(C(F)(F)F)c1 (stereo not shown) [fenfluramine] | 3.55
CC(C(=O)O)c1cccc(Oc2ccccc2)c1 (stereo not shown) [fenoprofen] | 3.72
CC(C)C(=O)Oc1ccc(CO)cc1[C@H](CCN(C(C)C)C(C)C)c1ccccc1 [fesoterodine] | 5.08
CC(C)(C)NC(=O)[C@H]1CC[C@H]2[C@@H]3CC[C@H]4NC(=O)C=C[C@]4(C)[C@H]3CC[C@]12C [finasteride] | 3.83
O=C(O)c1ccccc1Nc1cccc(C(F)(F)F)c1 [flufenamic acid] | 5.22
COc1ccc(-c2nc(C(F)(F)F)[nH]c2-c2ccc(OC)cc2)cc1 [flumizole] | 4.26

SMILES | log P
CNCCC(Oc1ccc(C(F)(F)F)cc1)c1ccccc1 (stereo not shown) [fluoxetine] | 3.93
OCCN1CCN(CC/C=C2/c3ccccc3Sc3ccc(C(F)(F)F)cc32)CC1 [flupenthixol] | 3.67
CCCCCCC(=O)OCCN1CCN(CCCN2c3ccccc3Sc3ccc(C(F)(F)F)cc32)CC1 [fluphenazine enanthate] | 7.29
CCN(CC)CCN1C(=O)CN=C(c2ccccc2F)c2cc(Cl)ccc21 [flurazepam] | 4.84
CC(C(=O)O)c1ccc(-c2ccccc2)c(F)c1 (stereo not shown) [flurbiprofen] | 3.66
CC(C)C(=O)Nc1ccc([N+](=O)[O-])c(C(F)(F)F)c1 [flutamide] | 3.52
CC(=O)O[C@H]1C[C@@]2(C)[C@@H](C[C@@H](O)[C@H]3[C@@]4(C)CC[C@@H](O)[C@@H](C)[C@@H]4CC[C@@]32C)/C1=C(\CCC=C(C)C)C(=O)O [fusidic acid] | 5.76
COc1ccc(Cl)cc1C(=O)NCCc1ccc(S(=O)(=O)NC(=O)NC2CCCCC2)cc1 [glibenclamide] | 3.08
O=C(CCCN1CCC(O)(c2ccc(Cl)cc2)CC1)c1ccc(F)cc1 [haloperidol] | 3.76
CC(CNC1CCCCC1)OC(=O)c1ccccc1 (stereo not shown) [hexylcaine] | 3.65
CCN(CC)CCNc1ccc(CO)c2sc3ccccc3c(=O)c12 [hycanthone] | 3.81
CCc1cc2c(cc1CC)CC(NC[C@H](O)c1ccc(O)c3[nH]c(=O)ccc13)C2 [indacaterol] | 3.88
CC(=O)N(CC(C)C(=O)O)c1c(I)cc(I)c(N)c1I (stereo not shown) [iocetamic acid] | 4.57
O=C(CCCCC(=O)Nc1c(I)cc(I)c(C(=O)O)c1I)Nc1c(I)cc(I)c(C(=O)O)c1I [iodipamide] | 5.10
CCC(Cc1c(I)cc(I)c(N)c1I)C(=O)O (stereo not shown) [iopanoic acid] | 4.65
CCCCC1=NC2(CCCC2)C(=O)N1Cc1ccc(-c2ccccc2-c2nnn[nH]2)cc1 [irbesartan] | 5.25
CNC1(c2ccccc2Cl)CCCCC1=O (stereo not shown) [ketamine] | 3.01
C=CCN1CC[C@]23CCCC[C@H]2[C@H]1Cc1ccc(O)cc13 [levallorphan] | 3.85
CN1CC[C@]23CCCC[C@H]2[C@H]1Cc1ccc(O)cc13 [leverphanol] | 3.26
N[C@@H](Cc1cc(I)c(Oc2ccc(O)c(I)c2)c(I)c1)C(=O)O [liothyronine] | 3.91
CN(C)C(=O)C(CCN1CCC(O)(c2ccc(Cl)cc2)CC1)(c1ccccc1)c1ccccc1 [loperamide] | 4.15
CCCCc1nc(Cl)c(CO)n1Cc1ccc(-c2ccccc2-c2nn[nH]n2)cc1 [losartan] | 3.46
CNCCCC12CCC(c3ccccc31)c1ccccc12 [maprotiline] | 4.36
Cc1ccc(Cl)c(Nc2ccccc2C(=O)O)c1Cl [meclofenamic acid] | 5.44
